The values below come from patent publication US20080300243A1, “Amide Derivatives as Ion-Channel Ligands and Pharmaceutical Compositions and Methods of Using the Same” (priority 2005, published 2008).

In the first test the target is VR1 (Homo sapiens, UniProt Q8NER1). Put plainly: Calcium uptake assay, low pH (proton) stimulus. The note with it: 0.3 μM compound; low pH agonist; HEK 293 cells expressing hVR1. Format: cell-based. Set-up: expressed in transfected cells; host or cells: T-REx HEK 293 (Invitrogen), pcDNA5/TO vector.
Sequence of VR1 (Q8NER1 whole entry): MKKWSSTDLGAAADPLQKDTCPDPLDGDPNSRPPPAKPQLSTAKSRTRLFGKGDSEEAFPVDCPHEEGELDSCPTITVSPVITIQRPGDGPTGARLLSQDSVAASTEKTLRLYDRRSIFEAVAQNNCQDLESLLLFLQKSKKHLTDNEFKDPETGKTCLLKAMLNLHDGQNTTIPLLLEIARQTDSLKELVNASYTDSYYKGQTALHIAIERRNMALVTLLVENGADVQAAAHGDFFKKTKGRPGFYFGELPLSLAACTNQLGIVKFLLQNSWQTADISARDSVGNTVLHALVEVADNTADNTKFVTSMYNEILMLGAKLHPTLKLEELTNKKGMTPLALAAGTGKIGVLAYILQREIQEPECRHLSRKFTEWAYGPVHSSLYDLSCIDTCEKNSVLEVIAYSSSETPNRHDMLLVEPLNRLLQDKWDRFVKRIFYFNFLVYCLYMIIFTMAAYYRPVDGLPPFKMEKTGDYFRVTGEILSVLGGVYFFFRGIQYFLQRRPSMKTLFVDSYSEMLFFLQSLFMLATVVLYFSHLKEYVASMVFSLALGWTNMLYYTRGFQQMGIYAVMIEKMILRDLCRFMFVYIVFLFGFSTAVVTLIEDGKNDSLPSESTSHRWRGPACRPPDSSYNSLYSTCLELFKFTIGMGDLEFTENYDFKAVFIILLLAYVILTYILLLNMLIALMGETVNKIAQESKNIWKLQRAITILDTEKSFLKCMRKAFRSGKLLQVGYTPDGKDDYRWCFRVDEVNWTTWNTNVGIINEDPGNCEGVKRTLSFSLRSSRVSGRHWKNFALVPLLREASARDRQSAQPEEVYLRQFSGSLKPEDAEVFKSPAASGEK
On to `O=C(Nc1ccc2c(c1)OCC(CO)O2)c1ccc(/C=C/C(F)(F)F)cc1` (single isomer, unassigned) [Compound 108], for which the “Low pH % Inhib. @ 0.3 μM” value was 116%.

Staying with this test, now noted: HEK293; 0.3 μM compound; low pH agonist; HEK 293 cells expressing hVR1; read-out: Low pH % Inhib. @ 0.3 μM.
For the molecule `CC(C)(C)C#Cc1ccc(C(=O)Nc2cccc3cnccc23)nc1` [Compound 91], the inhibition at 0.3 µM was 21%.
Still for that read-out and setting: in the case of `O=C(Nc1ccc2sc(CO)nc2c1)c1ccc(C#CC(F)(F)F)cc1` [Compound 54] it was 76%.
The same measure, in the same setting: in the case of `CC(C)(C)C#Cc1ccc(C(=O)Nc2ccc3c(c2)OCCN3)c(F)c1` [Compound 137] it was 103%.
For `Cc1cc(C#CC2CC2)ccc1C(=O)Nc1ccc2c(c1)OCCO2` [Compound 152], the inhibition at 0.3 µM was found to be 73%.
Still for that read-out and setting: in the case of `COc1cc(C#CC(C)(C)C)ccc1C(=O)Nc1ccc2c(c1)OCCN2` [Compound 128] it was 12%; in that of `Cc1cc(/C=C/C(F)(F)F)ccc1C(=O)Nc1cnc2[nH]ccc2c1` [Compound 230], 99%; in that of `Cc1cc2c(NC(=O)c3ccc(/C=C/C(F)(F)F)cc3C)cccc2cn1` [Compound 196], 86%.
Same read-out and setting: in the case of `CC(C)(C)C#Cc1ccc(C(=O)Nc2cnc3ccccc3c2)c(F)c1` [Compound 174] it was 97%; in that of `O=C(Nc1ccc2c(c1)OCCO2)c1ccc(C#CC2CC2)cc1` [Compound 49], 96%; in that of `Cc1cc(C#CC2CCCC2)ccc1C(=O)Nc1ccc2c(c1)OCC(CO)O2` (stereo not drawn) [Compound 141], 87%.
Still for that read-out and setting: in the case of `CC(C)(C)/C=C/c1ccc(C(=O)Nc2cccc3cnccc23)cc1` [Compound 40] it was 86%; in that of `Cc1cc(C(=O)Nc2cccc3cnccc23)ccc1C#CC(F)(F)F` [Compound 75], 102%.
In the case of `O=C(Nc1ccc2sc(CO)nc2c1)c1ccc(/C=C/C(F)(F)F)cc1` [Compound 55], the inhibition at 0.3 µM worked out at 101%.
As for `CC(C)(C)/C=C/c1ccc(C(=O)Nc2ccc3c(c2)OCCO3)cc1` [Compound 1], the inhibition at 0.3 µM stood at 83%.
Still for that read-out and setting: in the case of `O=C(Nc1cc2c(cc1Cl)NCCO2)c1ccc(/C=C/C(F)(F)F)cc1` [Compound 136] it was 50%; in that of `CCn1c2ccccc2c2cc(NC(=O)c3ccc(/C(C)=C\C(C)(C)C)cc3)ccc21` [Compound 19], 14%; in that of `O=C(Nc1ccc2c(c1)OC[C@H](CO)N2)c1ccc(C#CC2CC2)cc1F` [Compound 171], 112%.
For `Cc1cc(C#CC(C)(C)C)ccc1C(=O)Nc1cnc2[nH]c(CO)nc2c1` [Compound 218], the inhibition at 0.3 µM worked out at 6%.
Still for that read-out and setting: in the case of `O=C(Nc1ccc2c(c1)OCCN2)c1ccc(C#CC(F)(F)F)cc1` [Compound 70] it was 185%; in that of `Cc1cc(/C=C/C(F)(F)F)ccc1C(=O)Nc1cccc2cnccc12` [Compound 77], 90%; in that of `Cc1nc2cc(NC(=O)c3ccc(/C=C/C(F)(F)F)cc3F)ccc2s1` [Compound 177], 85%.
Regarding `CC(=O)N1CC(C)(C)c2ccc(NC(=O)c3ccc(C#CC(C)(C)C)cc3)cc21` [Compound 68], the inhibition at 0.3 µM is 140%.
Still for that read-out and setting: in the case of `O=C(Nc1cnc2ccccc2c1)c1ccc(/C=C/C(F)(F)F)cc1F` [Compound 178] it was 9%; in that of `Cc1cc(C#CC(C)(C)C)ccc1C(=O)Nc1ccc2[nH]c(=O)oc2c1` [Compound 217], 59%; in that of `CC(C)(C)C#Cc1ccc(C(=O)Nc2cccc3cnccc23)c(Cl)c1` [Compound 161], 95%.
For `O=C(Nc1ccc2c(c1)OC[C@@H](CO)N2)c1ccc(C#CC2CC2)cc1F` [Compound 169], the inhibition at 0.3 µM was 112%.
`O=C(Nc1ccc2c(c1)OCCN2)c1ccc(C#CC2CC2)cc1F` [Compound 143]: the inhibition at 0.3 µM amounted to 100%.
Same read-out and setting: in the case of `C/C(=C\c1ccc(C(=O)Nc2ccc3c(c2)OCCO3)cc1)C(F)(F)F` [Compound 102] it was 91%.
In the case of `CC(C)(C)C#Cc1ccc(C(=O)Nc2ccc3c(c2)OCC(CO)O3)c(F)c1` (stereo not drawn) [Compound 154], the inhibition at 0.3 µM came out at 95%.
Still for that read-out and setting: in the case of `CC(C)(C)C#Cc1cc(F)c(C(=O)Nc2cnc3ccccc3c2)c(F)c1` [Compound 179] it was 100%; in that of `O=C(Nc1ccc2c(c1)OCC(CO)O2)c1ccc(C#CC2CC2)cc1F` (stereo not drawn) [Compound 150], 75%.
Same read-out and setting: in the case of `CC(C)(C)C#Cc1cc(F)c(C(=O)Nc2ccc3c(c2)OCC(CO)N3)c(F)c1` (stereo not drawn) [Compound 168] it was 104%; in that of `CN1C(=O)C(C)(C)Oc2ccc(NC(=O)c3ccc(/C=C/C(F)(F)F)cc3)cc21` [Compound 78], 32%.
Still for that read-out and setting: in the case of `CC(C)(C)C#Cc1ccc(C(=O)Nc2cccc3cnccc23)c(F)c1` [Compound 175] it was 95%; in that of `CN1CCCc2ccc(NC(=O)c3ccc(C#CC4CCCC4)cc3)cc21` [Compound 98], 78%; in that of `CC(C)(C)C#Cc1ccc(C(=O)Nc2ccc3c(c2)NCC3(C)C)cc1` [Compound 69], 103%.
As for `C/C(=C/C(C)(C)C)c1ccc(C(=O)Nc2ccc3[nH]ccc3c2)cc1` [Compound 16], the inhibition at 0.3 µM came out at 21%.
Regarding `O=C(Nc1ccc2c(c1)OCC(CO)O2)c1ccc(C#CC2CC2)cc1Cl` (stereo not drawn) [Compound 156], the inhibition at 0.3 µM is 102%.
On the same count and under the same terms, in the case of `Cn1ccc2cc(NC(=O)c3ccc(C#CC(C)(C)C)cc3)ccc21` [Compound 33] it was 105%; in that of `CC(C)/C=C/c1ccc(C(=O)Nc2ccc3c(c2)Cc2ccccc2-3)cc1` [Compound 13], 11%.
Still for that read-out and setting: in the case of `COc1cc(/C=C\C(F)(F)F)ccc1C(=O)Nc1ccc2c(c1)OCCN2` [Compound 120] it was 19%.
On the same count and under the same terms, in the case of `CN1CCCc2ccc(NC(=O)c3ccc(C#CC(C)(C)C)nc3)cc21` [Compound 85] it was 34%.
`CN1C(=O)COc2ccc(NC(=O)c3ccc(/C=C/C(F)(F)F)cc3)cc21` [Compound 84]: the inhibition at 0.3 µM was found to be 45%.
Still for that read-out and setting: in the case of `CC(C)(C)C#Cc1ccc(C(=O)Nc2ccc3c(c2)OC[C@@H](CO)N3)c(Cl)c1` [Compound 183] it was 98%; in that of `O=C(Nc1ccc2c(c1)OCCN2)c1ccc(C#CC2CC2)cc1Cl` [Compound 147], 88%.
As to `O=C(Nc1ccc2c(c1)OCCO2)c1ccc(C#CC(F)(F)F)cc1` [Compound 43], the inhibition at 0.3 µM amounted to 105%.
Same read-out and setting: in the case of `CC(C)(C)C#Cc1ccc(C(=O)Nc2ccc3c(c2)OCC(CO)O3)cc1` (stereo not drawn) [Compound 81] it was 98%.
Consider `CC(C)(C)C#Cc1ccc(C(=O)Nc2ccc3c(c2)OC(CO)CO3)cc1` (stereo not drawn) [Compound 82], for which the inhibition at 0.3 µM was 76%.
On the same count and under the same terms, in the case of `O=C(Nc1cnc2ccccc2c1)c1ccc(C#CC2CC2)cc1` [Compound 47] it was 55%; in that of `O=C(Nc1ccc2nccnc2c1)c1ccc(/C=C/C(F)(F)F)cc1` [Compound 115], 90%.
The same measure, in the same setting: in the case of `Cc1cc(/C=C/C(F)(F)F)ccc1C(=O)Nc1ccc2ncccc2c1` [Compound 222] it was 82%; in that of `Cc1nc2cc(NC(=O)c3c(F)cc(C#CC(C)(C)C)cc3F)ccc2s1` [Compound 180], 99%.

The test is the same for the next values; noted with them: HEK293; 1 μM compound; low pH agonist; HEK 293 cells expressing hVR1; read-out: Low pH % Inhib. (at 1 μM).
As for `COc1cc(NC(=O)c2ccc(/C=C/C(C)C)cc2)cc(C(F)(F)F)c1` [Compound 240], the inhibition at 1 µM turned out to be 75%.
